From ChEMBL document CHEMBL3988442, “University of Dundee, Small-Polar-MMV Screening Library” (2021)
Several values for one entry are separate records, joined by “and”; a condition that tells them apart may be missing. Equal values may be shown once.

What was measured:
[1] = molecular target: T1, Coenzyme A biosynthesis bifunctional protein CoaBC (Mycobacterium tuberculosis (strain ATCC 25618 / H37Rv), UniProt P9WNZ1); assay: Biomol Green assay for MtCoaBC inhibitor, OD650 read; format: functional
T1 sequence (P9WNZ1 whole entry): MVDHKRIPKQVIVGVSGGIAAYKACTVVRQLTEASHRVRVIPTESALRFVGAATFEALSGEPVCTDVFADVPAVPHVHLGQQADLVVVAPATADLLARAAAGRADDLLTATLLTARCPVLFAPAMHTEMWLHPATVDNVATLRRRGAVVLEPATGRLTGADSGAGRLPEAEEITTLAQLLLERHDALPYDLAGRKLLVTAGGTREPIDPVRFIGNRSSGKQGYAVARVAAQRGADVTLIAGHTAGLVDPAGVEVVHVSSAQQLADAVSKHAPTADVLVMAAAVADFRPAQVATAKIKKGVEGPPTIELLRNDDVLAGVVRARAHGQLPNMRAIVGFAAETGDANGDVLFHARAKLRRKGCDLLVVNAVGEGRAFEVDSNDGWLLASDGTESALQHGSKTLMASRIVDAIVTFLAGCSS

Histidine--tRNA ligase = molecular target: T2, Histidine--tRNA ligase (Leishmania infantum, UniProt A4I591); assay: Leishmania infantum Histidine tRNA synthetase (LdHisRS); format: functional
T2 sequence (A4I591 whole entry): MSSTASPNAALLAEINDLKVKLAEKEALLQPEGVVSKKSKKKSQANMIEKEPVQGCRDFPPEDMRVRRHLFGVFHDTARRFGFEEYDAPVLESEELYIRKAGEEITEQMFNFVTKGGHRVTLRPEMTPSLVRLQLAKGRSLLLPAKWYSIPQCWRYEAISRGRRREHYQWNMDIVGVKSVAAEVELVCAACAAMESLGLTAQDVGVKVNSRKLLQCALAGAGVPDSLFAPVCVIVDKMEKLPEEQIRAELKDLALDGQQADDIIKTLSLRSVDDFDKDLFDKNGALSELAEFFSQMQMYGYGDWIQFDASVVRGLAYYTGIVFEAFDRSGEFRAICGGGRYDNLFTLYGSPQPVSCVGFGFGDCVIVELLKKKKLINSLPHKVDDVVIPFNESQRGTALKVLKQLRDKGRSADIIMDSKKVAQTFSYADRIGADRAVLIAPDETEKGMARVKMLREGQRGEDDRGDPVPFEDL

Plasmodium falciparum = assay: Calibr Malaria Delayed Death Assay SOP; format: functional, organism-based; settings: for IC50: Plasmodium falciparum
Leishmania donovani = assay: Leishmania intramacrophage assay; format: functional, organism-based; settings: for IC50: Leishmania donovani
[2] = microbe, parasite or virus in culture; settings: Mycobacterium tuberculosis, 72 h, read-out: pIC50 (converted)
[3] = microbe, parasite or virus in culture; settings: Mycobacterium tuberculosis, 96 h, read-out: pIC50 (converted)
[4] = In vitro enzyme assay to detect hydrolysis of chlorophenol red-beta-D-[…] directly proportional to the number of Toxoplasma stably expressing beta-galactosidase; format: functional, organism-based, Toxoplasma gondii; settings: for IC50: Toxoplasma gondii
Tryptophan--tRNA ligase = Tryptophan--tRNA ligase (Mycobacterium tuberculosis (strain ATCC 25618 / H37Rv), UniProt P9WFT3); assay: Biochemical assay for Mt-TrpRS; format: functional
ClpP1P2 = ClpP1P2 (Mycobacterium tuberculosis (strain ATCC 25618 / H37Rv), UniProt P9WPC3+P9WPC5); assay: in vitro assay to detect presence of AMC directly proportional to the activity of ClpP1P2. GHDDI collaboration.; format: functional
Schistosoma mansoni = assay: High throughput screening of compounds against Schistosoma mansoni motility; format: functional; design: dose or concentration left out as unconfirmed

Compound	pIC50 (Plasmodium falciparum)	IC50 (Plasmodium falciparum) [µM]	IC50 (Leishmania donovani) [µM]	pIC50 (Leishmania donovani)	further results
O=C1CCC2(CCN(Cc3cscn3)CC2)CN1CC1CCCO1 (centres undefined)	–	–	–	–	IC50 [1]: > 30.2 µM
CN1CCOC(CNCC(=O)NCCC2=CCCCC2)C1 (centres undefined)	–	–	–	–	IC50 [1]: > 30.2 µM
O=C(c1cccnc1SC/C=C/c1ccccc1)N1CCOCC(O)C1 (centres undefined)	–	–	–	–	IC50 [1]: > 30.2 µM
CCOC(=O)N1CCN(c2nc(CCN)nc3sc(C)c(C)c23)CC1	5.898	1.12	> 50.1	–	IC50 (Histidine--tRNA ligase): 21.8 µM and 19.6 µM
c1ccc(C2CCCN(c3ncnc4c3CCNC4)CC2)cc1 (centres undefined)	–	–	18.1	4.655	IC50 [2]: > 50.1 µM; IC50 [3]: > 50.1 µM
Clc1ccccc1C1(c2ccnc(C3CC3)n2)CCNCC1	6.224	0.536	23.9	–	pIC50 [4]: 4.703; IC50 [4]: 15.4 µM
COc1cccc(CNC(CN2CCN(C)CC2)c2ccccc2)c1 (centres undefined)	6.596	0.308	22	4.672	–
Cc1nc(CCN)cc(N2CCC(O)(c3ccc(Cl)cc3)CC2)n1	–	–	> 50.1	–	IC50 (Histidine--tRNA ligase): 46.4 µM and 42.8 µM
Cc1nc(C2CCN(C)CC2)cc(N2CCOc3ccc(Cl)cc3C2)n1	–	–	14.9	4.959	IC50 [2]: 32.6 µM; IC50 [3]: > 50.1 µM
c1ccc(C2=NOC3(CCN(Cc4c[nH]c5ccccc45)CC3)C2)cc1	–	–	18.3	4.869	pIC50 [4]: 5.08; IC50 [4]: 6.84 µM
CC(C)(C)c1nccc(C2(c3ccccc3Cl)CCNCC2)n1	6.385	0.667	7.19	–	pIC50 [4]: 4.939 and 5.272
N[C@@H]1CCC[C@@H](Oc2ccc(F)cc2Oc2cccc(F)c2)[C@@H]1O	–	–	> 50.1	–	IC50 (Tryptophan--tRNA ligase): > 195 µM
COc1ccc(-c2cccc3c2OC(CN)C3)cc1F (centres undefined)	–	–	22.2	4.618	IC50 [2]: > 50.1 µM; IC50 [3]: 34.7 µM
Cn1cc(CN2CCC(F)(F)C3(CCN(c4cnccn4)C3)C2)cn1 (centres undefined)	–	–	> 50.1	–	IC50 [2]: > 50.1 µM; IC50 [3]: > 50.1 µM
CC(O)CN1CCC(CNCc2cccc(OC(F)(F)F)c2)CC1 (centres undefined)	6.17	0.909	16.8	4.85	–
CCOc1c(Cl)cc(Cl)cc1CNCCCn1ccnc1	–	–	16	–	IC50 (Histidine--tRNA ligase): > 100 µM
O=C(C1CNCCO1)N1CCCC(c2ccccc2)(c2ccccc2)C1 (centres undefined)	6.124	0.975	11.6	4.781	–
Nc1nccc(N2CCC(c3cc(Cc4ccccc4)n[nH]3)CC2)n1	–	–	42	4.363	pIC50 [4]: 4.837; IC50 [4]: 20.2 µM
CN1CCN(CC(NCc2ccc(F)c(F)c2)c2ccccc2)CC1 (centres undefined)	6.278	0.618	11.3	–	IC50 [2]: 17.1 µM; IC50 [3]: > 50.1 µM
CC(C)c1nc(-c2cc(C(=O)NCCN(C)C)c3ccccn23)cs1.O=C(O)C(F)(F)F	–	–	18.9	4.846	IC50 [2]: > 50.1 µM; IC50 [3]: > 50.1 µM

Compound	pIC50 (Plasmodium falciparum)	IC50 (Plasmodium falciparum) [µM]	IC50 (Leishmania donovani) [µM]	pIC50 (Leishmania donovani)	further results
CN1CCC(N(Cc2ccco2)S(=O)(=O)c2ccc(Br)cc2Cl)CC1	6.36	0.473	20.9	4.643	–
CCN(CCN(C)C)c1nc(CCN)nc2sc(C)c(C)c12	5.974	1.21	> 50.1	–	IC50 (Histidine--tRNA ligase): 49.3 µM and 36.3 µM
Cc1ccc(CNC(CN2CCN(C)CC2)c2ccccc2)cc1 (centres undefined)	6.589	0.247	12.8	5.055	–
Cc1nccn1CCCn1cncc1-c1ccc2c(c1)CC(C)N2C (centres undefined)	–	–	> 50.1	–	IC50 (Histidine--tRNA ligase): 20.5 µM and 22.8 µM
Clc1ccccc1C1(c2ccnc(-c3ccncc3)n2)CCNCC1	6.636	0.264	18.6	4.623	–
COc1cc(C)c(-c2ccc(F)c3c2OC(CN)C3)cc1C (centres undefined)	–	–	7.27	4.996	IC50 [2]: > 50.1 µM; IC50 [3]: > 50.1 µM
C1Cc2nc(CCNc3nc(C4CC4)nc4c3CCNCC4)sc2C1	–	–	5.69	5.261 and 5.322	IC50 [4]: 12.6 µM
Clc1ccccc1C1(c2ccnc(C3CCCC3)n2)CCNCC1	6.419	0.399	6.68	–	pIC50 [4]: 5.147; IC50 [4]: 13 µM
CC(C)c1nccc(C2(c3ccccc3Cl)CCNCC2)n1	6.087	0.789	26.3	–	–
CCN(CC)CCNC(=O)c1ccc(-n2ccc3ccccc32)s1	–	–	11.2	–	IC50 [4]: 7.53 µM
Cc1nc(CCN)cc(N2CCOc3ccc(Cl)cc3C2)n1	–	–	11.2	4.773	IC50 (Histidine--tRNA ligase): 41.7 µM and 34.2 µM
O=C(c1c[nH]cn1)N1CCC(F)(F)C2(CCN(c3cccc(F)c3)C2)C1 (centres undefined)	–	–	> 50.1	–	IC50 [2]: > 50.1 µM; IC50 [3]: > 50.1 µM
COc1c(F)cc(-c2cccc3c2OC(CN)C3)cc1F (centres undefined)	–	–	19.2	4.693	IC50 [2]: 36.7 µM; IC50 [3]: 22.9 µM
O=C(NCCCN1CCCCC1)c1ccc(-n2ccc3ccccc32)s1	–	–	7.13	5.277	IC50 [2]: 28.1 µM; IC50 [4]: 6.04 µM; IC50 [3]: > 50.1 µM
CN(C)S(=O)(=O)c1ccc(-c2nc(C#N)c(NC3CCCCC3)o2)o1	–	–	> 50.1	–	IC50 (ClpP1P2): > 100 µM
Clc1ccccc1C1(c2ccnc(CC3CC3)n2)CCNCC1	6.68	0.268	–	4.801 and 4.355	–
CC(C)CNc1nc2c(cc1C(=O)NCC1CC1)CCNCC2	–	–	17.7	4.725	IC50 (ClpP1P2): > 100 µM
Cc1cc2nc(-c3cn(C4CCNCC4)nn3)[nH]c2cc1C	6.549	0.273	21.2	4.64	–
Cc1cc(N2CCC(N(C)C(=O)c3ccccc3)CC2)nc(C)n1	–	–	> 50.1	–	Percent Effect (Schistosoma mansoni): -7.781%
N[C@@H]1CCC[C@@H](Oc2ccc(F)cc2Oc2ccccc2)[C@@H]1O	6.155	0.602	11.2	4.886	IC50 (Tryptophan--tRNA ligase): > 195 µM

Compound	pIC50 (Plasmodium falciparum)	IC50 (Plasmodium falciparum) [µM]	IC50 (Leishmania donovani) [µM]	pIC50 (Leishmania donovani)	further results
COc1cc(OC)cc(-c2cccc3c2OC(CN)C3)c1 (centres undefined)	–	–	18.3	4.734	IC50 [2]: 1.33 µM; IC50 [3]: 20 µM
COc1ccc(C2=Nn3c(CCN)nnc3-c3ccccc3C2)cc1	–	–	17.9	4.676	IC50 (Histidine--tRNA ligase): > 100 µM
Cc1cccc(CNC(CN2CCN(C)CC2)c2ccccc2)c1 (centres undefined)	6.605	0.185	6.36	5.046	–
CCSc1cc(C(=O)NCc2ccccc2O)ccn1	–	–	> 50.1	–	Percent Effect (Schistosoma mansoni): -44.04%
NCC1CCCN(c2nc(-c3ccccc3)nc3c2CCNCC3)C1 (centres undefined)	–	–	27.2	–	IC50 [2]: 11.3 µM; IC50 [3]: 17.7 µM
CC(O)CN1CCC(CNCc2ccc(OC(F)(F)F)cc2)CC1 (centres undefined)	5.989	0.959	9.27	5.001	–
Cc1ccc(-c2cc(CNc3ncnc4c3CCNCC4)no2)cc1	–	–	8.55	4.865	IC50 [4]: 9.58 µM
Cc1nc(N(Cc2ccncc2)CC2CCCO2)c2ccsc2n1 (centres undefined)	–	–	> 50.1	–	–
CN(C)C(=O)c1ccc2ccc(N3CCN(CC4CC4)CC3)n2c1	–	–	> 50.1	–	–
CN1CCN(c2ccc3ccc(C(=O)N4CCCCO4)cn23)CC1	–	–	> 50.1	–	–
CCCC1CCCN(Cc2csc(-c3ncccn3)n2)CC1 (centres undefined)	–	–	18.4	4.896	–
Cc1ccc(-c2nc(CNC(C)CCO)[nH]c2-c2ccccn2)cc1 (centres undefined)	5.824	1.25	–	4.821 and 4.459	–
Clc1ccccc1C1(c2ccnc(-c3ncccn3)n2)CCNCC1	–	–	> 50.1	–	–
Cc1cc(N2CCCCCC2)n2nc(C)c(C)c2n1	–	–	> 50.1	–	Percent Effect (Schistosoma mansoni): -21.59%
Cc1ccc2[nH]c(-c3cn(C4CCNCC4)nn3)nc2c1C	6.454	0.325	20.4	4.614	–
c1cnc(-c2nc(CN3CCCC(Cn4cncn4)C3)cs2)nc1 (centres undefined)	–	–	> 50.1	–	–
COc1ncccc1CNC(=O)C1=NN(c2ccccc2)C(=O)CN1	–	–	> 50.1	–	–
Cc1c(C(=O)N2CCC(N3CCCCC3)CC2)n(C)c2ccc(Cl)cc12	6.009	1.07	13.5	4.818	–
